“Also recorded” adds a separate entry of the source.
What was measured:
Format in all cases: cell-based
Breast cancer cells [1] = assay: Intracellular acidity (pH) of breast cancer cells at normal or low glucose; conditions: low-carbohydrate state (glucose 5 nM), in combination with paclitaxel (PTX); FIG. 1, FIG. 2
Description: Breast cancer cells were cultured at a normal glucose (GLU) concentration of […] or a low concentration of […], and intracellular acidity was confirmed with or without the treatment of paclitaxel (PTX), which is an anticancer drug, and cariporide (CAR), which is a drug that regulates intracellular acidity.

Breast cancer cells [2] = assay: Cell viability of breast cancer cells at normal or low glucose; conditions: low-carbohydrate state (glucose 5 nM), in combination with paclitaxel (PTX); FIG. 3
Description: Breast cancer cells were cultured at a normal glucose (GLU) concentration of […] or a low concentration of […], and cell viability was confirmed with and without the treatment of paclitaxel (PTX), which is an anticancer drug, and cariporide (CAR) or curcumin (CUR).

colorectal cancer cells = assay: Anticancer drug resistance (GR50 ratio) of colorectal cancer cells at high or low glucose; conditions: low glucose (5 nM), in combination with irinotecan; FIG. 4
Description: Furthermore, colorectal cancer cells were cultured at a high glucose concentration ([…]) or a low glucose concentration ([…]), and it was confirmed by a growth rate 50 ratio (GR50 ratio) while treating irinotecan, which is an anticancer drug, and cariporide in combination whether the cancer cells had anticancer drug resistance.

CC(C)c1ccc(C(=O)NC(=N)N)cc1S(C)(=O)=O [cariporide]
intracellular acidity (Breast cancer cells [1]): maintained normal pH; also recorded: closest to normal
anticancer effect (cell viability) (Breast cancer cells [2]): best anticancer effect
anticancer drug resistance (growth rate 50 ratio, GR50 ratio) (colorectal cancer cells): overcome anticancer drug resistance
cell viability (colorectal cancer cells): significantly reduce cell viability

COc1cc(/C=C/C(=O)CC(=O)/C=C/c2ccc(O)c(OC)c2)ccc1O [curcumin]
intracellular acidity (Breast cancer cells [1]): same effect as cariporide; also recorded: closest to normal
anticancer effect (cell viability) (Breast cancer cells [2]): best anticancer effect
